Values quoted from earlier work as cited in patent US6113907A, “Pharmaceutical grade St. John's Wort” (priority 1997, dated 2000).

Settings: depressed outpatients; cited from earlier work

With CCCC/N=C(/c1cc(Cl)ccc1O)c1ccccc1Cl [fengabine] as the compound, how does the antidepressant effects read?
Its antidepressant effects is “antidepressant effects”.
